Data on 28 compounds can be found in patent publication US20220324865A1 (Bayer Aktiengesellschaft, priority 2018, published 2022).

Molecules are shown by their SMILES. Structures can show the parent of a compound that is named as a salt.

The assay has as its target T1, human EP3 receptor (Homo sapiens, UniProt P43115).
T1 construct: expressed in transfected cells; host or cells: CHO K1 (Chinese Hamster Ovary), stably co-transfected with Galpha16 and mitochondrial clytin
T1 sequence (P43115 1-390): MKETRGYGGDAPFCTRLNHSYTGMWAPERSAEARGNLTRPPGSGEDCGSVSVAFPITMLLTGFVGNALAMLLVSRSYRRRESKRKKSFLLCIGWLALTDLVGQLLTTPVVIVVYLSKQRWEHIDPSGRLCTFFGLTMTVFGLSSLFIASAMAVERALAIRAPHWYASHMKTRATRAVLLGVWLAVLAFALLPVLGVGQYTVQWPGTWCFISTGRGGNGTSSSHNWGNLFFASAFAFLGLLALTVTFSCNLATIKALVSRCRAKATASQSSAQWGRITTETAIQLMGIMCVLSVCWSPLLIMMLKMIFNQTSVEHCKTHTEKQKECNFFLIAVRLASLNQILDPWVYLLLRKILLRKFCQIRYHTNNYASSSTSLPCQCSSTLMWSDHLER
Kind of assay: Cellular in vitro assay for determining EP3 receptor activity (human EP3 cell line, sulprostone-stimulated calcium luminescence). As to conditions: CHO cells expressing human EP3 and mitochondrial Clytin; antagonist mode, sulprostone at EC50; read-out: EP3 CHO mtCLY ANTAG IC50. Format: cell-based. The method, boiled down:
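CHO K1 cells stably expressing human EP3 with Gα16 and mitochondrial Clytin, loaded overnight with coelenterazine. Compounds added 10 min before sulprostone at its EC50; antagonism read immediately as reduced calcium-driven luminescence, quadruplicate points.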
For `CCn1cc(Cl)c(CNC(=O)c2nn3c(C)c(-c4ccc5ccccc5c4)[nH]c(=O)c3c2C)n1` [Example 3-8, N-[(4-Chloro-1-ethyl-1H-pyrazol-3-yl)methyl]-3,7-dimethyl-6-(naphthalen-2-yl)-4-oxo-4,5-dihydropyrazolo[1,5-a]pyrazine-2-carboxamide], the IC50 was found to be 2.9 nM. For `Cc1cccc2ncc(-c3cn4nc(C(=O)NCc5ccc6[nH]c(=O)[nH]c6c5)c(C(C)C)c4c(=O)[nH]3)cc12` [Example 4-80, 6-(5-Methylquinolin-3-yl)-4-oxo-N-[(2-oxo-2,3-dihydro-1H-benzimidazol-5-yl)methyl]-3-(propan-2-yl)-4,5-dihydropyrazolo[1,5-a]pyrazine-2-carboxamide], the concentration for half-maximal inhibition (IC50) came to 1.35 nM. On to `O=C(NCc1cc(F)ccc1F)c1cc2c(=O)[nH]c(-c3ccc4ccccc4c3)cn2n1` [Example 2-53, N-(2,5-Difluorobenzyl)-6-(2-naphthyl)-4-oxo-4,5-dihydropyrazolo[1,5-a]pyrazine-2-carboxamide], for which the IC50 amounted to 3.7 nM.

As to `CC(=O)N1CC(NC(=O)c2cc3c(=O)[nH]c(-c4ccc5ccccc5c4)cn3n2)(c2ccc(F)cc2)C1` [Example 1-146, N-[1-Acetyl-3-(4-fluorophenyl)azetidin-3-yl]-6-(2-naphthyl)-4-oxo-5H-pyrazolo[1,5-a]pyrazine-2-carboxamide], the IC50 stood at 4.5 nM. As to `Cc1ccc(-c2cn3nc(C(=O)NCCC(O)C(F)(F)F)c(C4CC4)c3c(=O)[nH]2)cc1F` (single isomer, unassigned) [6-368], the IC50 was found to be 0.87 nM. For the compound `Cc1cc(-c2cn3nc(C(=O)NC(C)C4CCC4)c(C4CC4)c3c(=O)[nH]2)ccc1Cl` (single isomer, unassigned) [6-300], the IC50 was 3.3 nM. For `Cc1ccc(-c2cn3nc(C(=O)NC4(c5ccc(F)cc5)CN(C)C4)c(C(F)(F)F)c3c(=O)[nH]2)cc1C` [Example 1-93, 6-(3,4-Dimethylphenyl)-N-[3-(4-fluorophenyl)-1-methylazetidin-3-yl]-4-oxo-3-(trifluoromethyl)-4,5-dihydropyrazolo[1,5-a]pyrazine-2-carboxamide], the IC50 stood at 3.58 nM.

Regarding `CCn1nccc1CNC(=O)c1nn2cc(-c3cnc4cccc(C)c4c3)[nH]c(=O)c2c1C(C)C` [Example 4-16, N-[(1-Ethyl-1H-pyrazol-5-yl)methyl]-6-(5-methylquinolin-3-yl)-4-oxo-3-(propan-2-yl)-4,5-dihydropyrazolo[1,5-a]pyrazine-2-carboxamide], the IC50 was found to be 0.5 nM. Regarding `CC(C)(O)[C@@H](NC(=O)c1nn2cc(-c3cc(F)c(Cl)c(F)c3)[nH]c(=O)c2c1C1CC1)c1ccc(F)cc1` [6-475], the IC50 was determined as 2.58 nM. With `O=C(N[C@H](CCO)c1ccc(F)cc1)c1cc2c(=O)[nH]c(-c3ccc(Cl)c(Cl)c3)cn2n1` [6-635], the half-maximal inhibitory concentration (IC50) worked out at 4.05 nM. For the compound `Cc1cccc2ncc(-c3cn4nc(C(=O)NC(c5ccc(F)cc5)C(C)C)c(C(C)C)c4c(=O)[nH]3)cc12` (stereo not shown) [Example 4-51, N-[1-(4-Fluorophenyl)-2-methylpropyl]-3-isopropyl-6-(5-methyl-3-quinolyl)-4-oxo-5H-pyrazolo[1,5-a]pyrazine-2-carboxamide], the IC50 stood at 4.05 nM. On to `CC(NC(=O)c1cc2c(=O)[nH]c(-c3ccc4ccccc4c3)cn2n1)c1ccc(S(N)(=O)=O)cc1` (stereo not shown) [Example 2-37, 6-(2-Naphthyl)-4-oxo-N-[1-(4-sulfamoylphenyl)ethyl]-4,5-dihydropyrazolo[1,5-a]pyrazine-2-carboxamide], for which the IC50 was 4.5 nM. Consider `CC(C)c1c(C(=O)N[C@@H](c2ccc(F)cc2)C(F)(F)CO)nn2cc(-c3ccc(Cl)c(F)c3)[nH]c(=O)c12` [6-536], for which the IC50 was determined as 3.8 nM. As for `Cc1ccc(-c2cn3nc(C(=O)NC(C)c4ccc(O)cc4)cc3c(=O)[nH]2)cc1C` (single isomer, unassigned) [6-348], the IC50 stood at 3.55 nM. With `COC[C@H](NC(=O)c1nn2cc(-c3ccc(C)c(Cl)c3)[nH]c(=O)c2c1C1CC1)c1ccccc1` [6-277], the IC50 stood at 4.1 nM. For `CC(NC(=O)c1cc2c(=O)[nH]c(-c3ccc4ccccc4c3)cn2n1)c1ccn(C)n1` (stereo not shown) [Example 2-49, N-[1-(1-Methyl-1H-pyrazol-3-yl)ethyl]-6-(2-naphthyl)-4-oxo-4,5-dihydropyrazolo[1,5-a]pyrazine-2-carboxamide], the IC50 came to 8.6 nM. On to `Cc1cc(-c2cn3nc(C(=O)N[C@H](C)C4CC4)c(C(F)(F)C(F)(F)F)c3c(=O)[nH]2)ccc1Cl` [6-476], for which the IC50 turned out to be 5.3 nM. With `Cc1ccc(-c2cn3nc(C(=O)N[C@@H](c4ccc(F)cc4)C(C)(C)O)cc3c(=O)[nH]2)c(F)c1C` [6-646] the figure was 5.4 nM; with `Cc1c(C(=O)NC2(c3ccc(F)cc3)CN(C)C2)nn2cc(-c3ccc4ccccc4c3)[nH]c(=O)c12` [Example 1-34, N-[3-(4-Fluorophenyl)-1-methylazetidin-3-yl]-3-methyl-6-(naphthalen-2-yl)-4-oxo-4,5-dihydropyrazolo[1,5-a]pyrazine-2-carboxamide formic acid salt], 4.18 nM; with `COC[C@@H](NC(=O)c1cc2c(=O)[nH]c(-c3ccc4c(c3)OCCO4)cn2n1)c1ccccc1` [6-49], 1.6 nM. Then `O=C(N[C@@H](c1ccc(F)cc1)C(F)(F)CO)c1nn2cc(-c3ccc(Cl)c(Cl)c3)[nH]c(=O)c2c1C1CC1` [6-421], with 1.49 nM; and `CN(CCNC(=O)c1nn2cc(-c3ccc4ccccc4c3)[nH]c(=O)c2c1C(F)(F)F)C1CC1` [6-517], with 4.2 nM; and `CCn1cc(CNC(=O)c2nn3c(C)c(-c4ccc5ccccc5c4)[nH]c(=O)c3c2C)c(C)n1` [Example 3-14, N-[(1-Ethyl-3-methyl-1H-pyrazol-4-yl)methyl]-3,7-dimethyl-6-(naphthalen-2-yl)-4-oxo-4,5-dihydropyrazolo[1,5-a]pyrazine-2-carboxamide], with 1.25 nM. `Cc1ccc(-c2[nH]c(=O)c3c(C(F)(F)F)c(C(=O)NCCn4ccc(C5CC5)n4)nn3c2C)cc1C` [Example 1-130, N-[2-(3-Cyclopropyl-1H-pyrazol-1-yl)ethyl]-6-(3,4-dimethylphenyl)-7-methyl-4-oxo-3-(trifluoromethyl)-4,5-dihydropyrazolo[1,5-a]pyrazine-2-carboxamide]: the IC50 is 2.55 nM. With `Cc1c(C(=O)NC(C)c2cccc(Br)c2)nn2c(C)c(-c3ccc4ccccc4c3)[nH]c(=O)c12` (stereo not shown) [Example 3-24, N-[1-(3-Bromophenyl)ethyl]-3,7-dimethyl-6-(2-naphthyl)-4-oxo-5H-pyrazolo[1,5-a]pyrazine-2-carboxamide], the IC50 was 4.85 nM. With `Cc1nc(-c2cn3nc(C(=O)N[C@@H](c4ccc(F)cc4)C(C)(C)O)c(C4CC4)c3c(=O)[nH]2)ccc1Cl` [6-590] the figure was 1.2 nM; with `Cc1c(C(=O)N[C@H]2c3ccccc3C[C@H]2O)nn2c(C)c(-c3ccc4ccccc4c3)[nH]c(=O)c12` [Example 3-67, N-[(7S,2R)-2-Hydroxy-2,3-dihydro-1H-inden-1-yl]-3,7-dimethyl-6-(naphthalen-2-yl)-4-oxo-4,5-dihydropyrazolo[1,5-a]pyrazine-2-carboxamide], 2.05 nM.

As to `C[C@H](NC(=O)c1cc2c(=O)[nH]c(-c3ccc4ccccc4c3)cn2n1)c1ccccc1` [Example 2-34, 6-(2-Naphthyl)-4-oxo-N-[(7S)-1-phenylethyl]-4,5-dihydropyrazolo[1,5-a]pyrazine-2-carboxamide], the IC50 was 1.9 nM.
